Measurements: patent publication US7273863B1, “Benzophenones as inhibitors of reverse transcriptase” (SmithKline Beecham Corporation, priority 1999, dated 2007)

Legend:
[1] = test system: NEV-R; test: MT4 cell assay, antiviral HIV activity (propidium iodide); assay type: cell-based; conditions: Human immunodeficiency virus 1, MT4, read-out: IC50 (nM) Range
[2] = test system: WTRVA; test: HeLa cell assay (HIV-LTR β-galactosidase reporter); assay type: cell-based, HIV-1; conditions: Human immunodeficiency virus 1, Virus Type WTRVA, read-out: IC50 (nM) Range
Method: (§1) The HeLa cell assay was performed according to a modification of Kimpton J. and Emerman M., Detection of replication-competent and pseudotyped human immunodeficiency virus with a sensitive cell line on the basis of activation of an integrated β-galactosidase gene, J. Virol. 66:2232-2239 (1992), in which HIV-1 infection is detected by the activation of an HIV-LTR driven β-galactosidase reporter that is integrated into the genome of a CD4^+ HeLa cell line. Quantitation of β-galactosidase is achieved by measuring the activation of a chemiluminescent substrate (Tropix). The concentration of each compound required to inhibit 50% (IC50) of the HIV-1 induced β-galactosidase signal, relative to untreated controls, was determined for each isogenic, recombinant virus.
(§2) HeLa-CD4-LTR-β-gal cells were obtained from the NIH AIDS Research and Reference Reagent Program. Cells were propagated in DMEM containing 10% fetal bovine serum, 0.2 mg/ml geneticin and 0.1 mg/ml hygromycin B. Cells were routinely split by trypsinization when confluency reached 80% (approximately every 2 to 3 days).
(§3) DNA encoding the HIV-1 reverse transcriptase was subcloned from a M13 phage into a general shuttle vector, pBCSK+, as a ˜1.65 kbp EcoRI/HindIII ended DNA fragment. The HIV DNA insert of the resulting plasmid, pRT2, was completely sequenced on both strands prior to use in site directed mutagenesis experiments. Specific amino acid replacements were made using Stratagene Quick Change reagents and mutagenic oligonucleotides from Oligos. Following mutagenesis, the entire mutant RT coding sequence was verified by sequencing both DNA strands.
(§4) Mutant HIV-1 strains were isolated by a modified Recombinant Virus Assay (Kellam P. and Larder B., Recombinant virus assay: a rapid, phenotypic assay for assessment of drug susceptibility of human immunodeficiency virus type 1 isolates, Antimicrobial Agents and Chemotherapy, 38:23-30, 1994). 1×10^7 Jurkat T-cells (maintained in RPMI containing 10% fetal bovine serum, split 1:5 every 5 to 6 days) were co-transfected with EcoRI/HindIII digested mutant RT plasmid and Bst EII-digested HIV-1HXB2ΔRT DNA in the presence of DMRIE-C transfection reagent (Gibco) according to supplier's recommended protocol. Each mutant RT coding sequence was crossed into the RT-deleted HIV-1 viral DNA backbone by in vivo homologous recombination. Transfected cell cultures were expanded and monitored until syncitia formation and CPE were extensive. Virus was harvested by clear spin of the culture supernatants and frozen at −80 C as primary stock. Recombinant progeny virus was sequenced in the RT region to confirm the mutant genotype. Virus stocks were further expanded by infection of Jurkat cells, harvested and stored as frozen aliquots. Stocks were titered in HeLa MAGI cells for assay.
(§5) The HIV-1HXB2 mutants were titered in the HeLa MAGI assay system to determine the relative light units (RLU) per ml, a measure of infectivity relevant for this assay system. Virus stocks were diluted in a 2-fold series into DMEM containing 10% fetal bovine serum plus 20 ug/ml DEAE-dextran and assayed as described in the Experimental Protocol section, below.
(§6) 96-well microtiter plate(s) (Costar #3598) were seeded with 3×10^3 HeLa-CD4-LTR-β-gal in 100 μl DMEM containing 10% fetal bovine serum. Plates were placed in a 37° C., 5% CO2 humidified incubator overnight. The following day, mutant virus stocks were thawed in a room temperature water bath and diluted into DMEM containing 10% fetal bovine serum and 20 μg/ml DEAE-dextran to achieve an input of 1500 to 2000 RLU/ml. All media was removed with an 8 channel manifold aspirator and 35 μl (50 to 70 total RLUs) of diluted virus was added to each well for virus adsorption. Plates were placed in a 37° C., 5% CO2 humidified incubator for 1.5 to 2 hours.
(§7) Compound titration plates were prepared at 1.35× final concentration during the virus adsorption period. […]

[3] = test system: isogenic HIV-1 RT mutant virus G190A; test: HeLa cell assay (HIV-LTR β-galactosidase reporter); assay type: cell-based; conditions: Human immunodeficiency virus 1, HeLa, read-out: IC50 (nM) Range
Method: as §1, §2, §3, §4, §5, §6, §7

[4] = test system: isogenic HIV-1 RT mutant virus K103N/G190A; test: HeLa cell assay (HIV-LTR β-galactosidase reporter); assay type: cell-based; conditions: Human immunodeficiency virus 1, HeLa, read-out: IC50 (nM) Range
Method: as §1, §2, §3, §4, §5, §6, §7

[5] = test system: isogenic HIV-1 RT mutant virus K103N/P225H; test: HeLa cell assay (HIV-LTR β-galactosidase reporter); assay type: cell-based; conditions: Human immunodeficiency virus 1, HeLa, read-out: IC50 (nM) Range
Method: as §1, §2, §3, §4, §5, §6, §7

[6] = test system: isogenic HIV-1 RT mutant virus K103N/V108I; test: HeLa cell assay (HIV-LTR β-galactosidase reporter); assay type: cell-based; conditions: Human immunodeficiency virus 1, HeLa, read-out: IC50 (nM) Range
Method: as §1, §2, §3, §4, §5, §6, §7

[7] = test system: isogenic HIV-1 RT mutant virus K103N/Y181C; test: HeLa cell assay (HIV-LTR β-galactosidase reporter); assay type: cell-based; conditions: Human immunodeficiency virus 1, HeLa, read-out: IC50 (nM) Range
Method: as §1, §2, §3, §4, §5, §6, §7

[8] = test system: isogenic HIV-1 RT mutant virus K103N; test: HeLa cell assay (HIV-LTR β-galactosidase reporter); assay type: cell-based; conditions: Human immunodeficiency virus 1, HeLa, read-out: IC50 (nM) Range
Method: as §1, §2, §3, §4, §5, §6, §7

[9] = test system: isogenic HIV-1 RT mutant virus L100I; test: HeLa cell assay (HIV-LTR β-galactosidase reporter); assay type: cell-based; conditions: Human immunodeficiency virus 1, HeLa, read-out: IC50 (nM) Range
Method: as §1, §2, §3, §4, §5, §6, §7

[10] = test system: isogenic HIV-1 RT mutant virus P225H; test: HeLa cell assay (HIV-LTR β-galactosidase reporter); assay type: cell-based; conditions: Human immunodeficiency virus 1, HeLa, read-out: IC50 (nM) Range
Method: as §1, §2, §3, §4, §5, §6, §7

[11] = test system: isogenic HIV-1 RT mutant virus P236L; test: HeLa cell assay (HIV-LTR β-galactosidase reporter); assay type: cell-based; conditions: Human immunodeficiency virus 1, HeLa, read-out: IC50 (nM) Range
Method: as §1, §2, §3, §4, §5, §6, §7

[12] = test system: isogenic HIV-1 RT mutant virus V106A/Y181C; test: HeLa cell assay (HIV-LTR β-galactosidase reporter); assay type: cell-based; conditions: Human immunodeficiency virus 1, HeLa, read-out: IC50 (nM) Range
Method: as §1, §2, §3, §4, §5, §6, §7

[13] = test system: isogenic HIV-1 RT mutant virus V106I/Y181C; test: HeLa cell assay (HIV-LTR β-galactosidase reporter); assay type: cell-based; conditions: Human immunodeficiency virus 1, HeLa, read-out: IC50 (nM) Range
Method: as §1, §2, §3, §4, §5, §6, §7

[14] = test system: isogenic HIV-1 RT mutant virus V106I; test: HeLa cell assay (HIV-LTR β-galactosidase reporter); assay type: cell-based; conditions: Human immunodeficiency virus 1, HeLa, read-out: IC50 (nM) Range
Method: as §1, §2, §3, §4, §5, §6, §7

[15] = test system: isogenic HIV-1 RT mutant virus V108I/Y181C; test: HeLa cell assay (HIV-LTR β-galactosidase reporter); assay type: cell-based; conditions: Human immunodeficiency virus 1, HeLa, read-out: IC50 (nM) Range
Method: as §1, §2, §3, §4, §5, §6, §7

[16] = test system: isogenic HIV-1 RT mutant virus V108I; test: HeLa cell assay (HIV-LTR β-galactosidase reporter); assay type: cell-based; conditions: Human immunodeficiency virus 1, HeLa, read-out: IC50 (nM) Range
Method: as §1, §2, §3, §4, §5, §6, §7

[17] = test system: isogenic HIV-1 RT mutant virus Y181C; test: HeLa cell assay (HIV-LTR β-galactosidase reporter); assay type: cell-based; conditions: Human immunodeficiency virus 1, HeLa, read-out: IC50 (nM) Range
Method: as §1, §2, §3, §4, §5, §6, §7

Structure (SMILES)	IC50 [1]	IC50 [2]	IC50 [3]	IC50 [4]	IC50 [5]	IC50 [6]	IC50 [7]	IC50 [8]	IC50 [9]	IC50 [10]	IC50 [11]	IC50 [12]	IC50 [13]	IC50 [14]	IC50 [15]	IC50 [16]	IC50 [17]
CCc1cc(C#N)cc(C(=O)c2cc(Cl)ccc2OCC(=O)Nc2ccc(S(N)(=O)=O)cc2C)c1 [Compound 498]	< 10 nM	< 10 nM	< 10 nM	< 10 nM	< 10 nM	< 10 nM	< 10 nM	< 10 nM	< 10 nM	< 10 nM	< 10 nM	< 10 nM	11 to 100 nM	< 10 nM	< 10 nM	< 10 nM	< 10 nM
Cc1cc(C#N)cc(C(=O)c2cc(Cl)ccc2OCC(=O)Nc2ccc(S(N)(=O)=O)nc2C)c1 [Compound 503]	< 10 nM	< 10 nM	< 10 nM	< 10 nM	< 10 nM	< 10 nM	< 10 nM	< 10 nM	< 10 nM	< 10 nM	< 10 nM	< 10 nM	< 10 nM	< 10 nM	< 10 nM	< 10 nM	< 10 nM
Cc1cc(C#N)cc(C(=O)c2cc(Cl)ccc2OCC(=O)Nc2cnc(S(N)(=O)=O)cc2C)c1 [Compound 587]	< 10 nM	< 10 nM	< 10 nM	< 10 nM	< 10 nM	< 10 nM	< 10 nM	< 10 nM	< 10 nM	< 10 nM	< 10 nM	< 10 nM	11 to 100 nM	< 10 nM	< 10 nM	< 10 nM	< 10 nM
Cc1cc(C#N)cc(C(=O)c2cc(Cl)ccc2OCC(=O)Nc2ccc(OCCCN3CC=CC3)cc2C)c1 [Compound 593]	< 10 nM	< 10 nM	< 10 nM	< 10 nM	< 10 nM	< 10 nM	< 10 nM	< 10 nM	< 10 nM	< 10 nM	< 10 nM	< 10 nM	11 to 100 nM	< 10 nM	< 10 nM	< 10 nM	< 10 nM
